Values quoted from earlier work, collected in patent publication US20240207252A1, “AEROSOL-FORMING SUBSTRATE AND AEROSOL-GENERATING SYSTEM” (SHENZHEN FIRST UNION TECHNOLOGY CO., LTD., priority 2021, published 2024).

Settings: single oral administration

Question: With `COC(=O)[C@@H]1[C@H]2C[C@H]3c4[nH]c5ccccc5c4CCN3C[C@@H]2CC[C@@H]1O` [yohimbine, methyl 17alpha-hydroxyyohimban-16alpha-carboxylate] as the molecule, how does the Tmax read?
Answer: less than 1 h

Question: And the t1/2?
Answer: less than 1 h
